≈ marks a conversion by molar mass, not a printed value.
What was measured:
[1] = system: Enterococcus faecalis 29212; experiment: Broth microdilution MIC, Enterococcus faecalis ATCC 29212; format: cell-based; settings: for MIC: Enterococcus faecalis, ATCC29212, Table 2, read-out: MIC(90-100) EF-ATCC 29212; for MIC(90-100) EF-ATCC 29212: Table 2
[2] = system: Staphylococcus aureus 29213; experiment: Broth microdilution MIC, Staphylococcus aureus ATCC 29213; format: cell-based; settings: for MIC: Staphylococcus aureus, ATCC29213, Table 2, read-out: MIC(90-100) SA-ATCC 29213; for MIC(90-100) SA-ATCC 29213: Table 2
Text: See, NCCLS document M7-A5. Methods for Dilution Antimicrobial Susceptibility Tests for Bacteria That Grow Aerobically; Approved Standard-Fifth Edition. Volume 20, Number 2. January 2000, (ISBN 1-56238-394-9) and Lorian V. Antibiotics. Laboratory Medicine. 4th ed. Baltimore: Williams and Wilkins, pp. 52-111 (1996). For subsequent testing, the following strains have been used: Staphylococcus aureus NRS4 (992; HIP5836; New Jersey) (Smith et al., New Engl. J. Med. 340: 493-501 (1999); Tenover et al., J. Clin. Microbiol. 36: 1020-1027 (1998)), Staphylococcus aureus NRS3 (963sm; HIP5827; Michigan) (Smith et al., ibid.; Tenover et al., ibid.), Staphylococcus aureus NRS103 (Becker) (Karakawa and Vann, Sem. Infect. Dis. 4: 285 (1982), Staphylococcus aureus NRS102 (Reynolds) Karakawa and Vann, ibid; McMurray et al., JID 162: 759-762 (1990)), Staphylococcus epidermidis NRS101 (ATCC 35984), Streptococcus pneumoniae (ATCC 49619), Enterococcus faecalis (ATCC 51299), and Staphylococcus aureus (ATCC 43300.
Stock cultures of these strains were obtained by seeding colonies from overnight streak plates (Tryptic Soy Agar II (TSAII) and 5% sheep's blood (SB) agar plates: Becton Dickinson, CA#2211261) into sterile Mueller-Hinton Broth (MHB)(Becton Dickinson, CA#211443) and growing the suspensions to mid-late log phase in 13 mL screw-cap tubes. Glycerol (Sigma, CA#G-6279) was sterilized by autoclaving for 15 minutes at 121° C. in 6 mL volumes, and then stored at 2-8° C. This was diluted to 20% in dH2O, and then added 1:1 (250 μL:250 μL, 10% final glycerol concentration) to the logarithmically growing bacterial suspension of each strain. Tubes were frozen and stored at −70° C. Purity of the stock cultures was tested by thawing one tube of each strain in a water bath at 37° C. and plating them on TSAII with 5% SB. Plates were incubated overnight at 37° C. and colonies were examined for morphology. Growth curves and approximate CFU/mL were also obtained.
High purity substituted oxazolidinones prepared according to the method of the present invention and a ZYVOX standard (ZYVOX is a trade name for linezolid available from Pharmacia Corporation) were provided by Synthon Corporation, Monmouth Junction, N.J. Compounds were dissolved at 10 mg/mL in DMSO, as after a dilution of approx. 39.0 to reach the desired final starting concentration of 256 ug/ml, the concentration of DMSO is approximately 2.5%. Compounds were then stored at room temperature (25° C.) in the dark.
Antimicrobial susceptibility screening was as follows. All compounds were initially screened for activity in duplicate at 256 μg/mL (2.5% DMSO), including ZYVOX, the positive control for antimicrobial activity. A single well of bacterially inoculated 2.5% DMSO served as a positive control for bacterial growth, while a well of DMSO inoculated with of 50 μL of sterile 0.9% saline served as a negative growth control. Controls were prepared on every microplate, so that 46 was the maximum number of compounds that were screened per plate. Broth was pipetted into sterile microcentrifuge tubes, to which the compounds were then added (1:19.53 dilution or 2× final concentration). Each tube was vortexed, and 50 μL was immediately transferred to the microplate wells for each strain. Solubility was assessed by visual observation. MB (medium broth solubility) was recorded if the solution appeared only slightly cloudy. LB (low broth solubility) was recorded if the solution was extremely cloudy, and especially if larger, clumpy precipitates formed. Bacteria were grown as described above, although absorbance was measured at 650 nm and bacteria were diluted to an initial OD of 0.12-0.15. Bacteria were then further diluted 1:100 with 0.9% sterile saline. Within 15 minutes of this final dilution, 50 μL of this suspension was added to each well for a final volume of […], and a final bacterial concentration of 1×10^5 CFU/mL (except for the negative control well). Plates were grown as above and all observations were recorded. […]

MIC [1] [µg/mL] | MIC [2] [µg/mL] | Compound | other results
125 (≈ 275 µM) | 250 (≈ 551 µM) | COc1cccc(CN2CC(COS(=O)(=O)c3ccc(Cl)c4nonc34)OC2=O)c1 (stereo not drawn) [Compound 323] | 
 | 256 (≈ 689 µM) | CCCCN1CC(COS(=O)(=O)c2cccc3nsnc23)OC1=O (stereo not drawn) [Compound 905] | 
 | 256 (≈ 640 µM) | CCC#CCN1C[C@H](COS(=O)(=O)c2ccc(Cl)c3nonc23)OC1=O [Compound 924] | 
 | 62.5 (≈ 183 µM) | C=CCN1CC(COS(=O)(=O)c2ccc([N+](=O)[O-])cc2)OC1=O (stereo not drawn) [Compound 108] | 
 | 250 (≈ 496 µM) | CCOC(=O)CC(C)(C)C(=O)CN1C[C@@H](COS(=O)(=O)c2ccc(Cl)c3nonc23)OC1=O [Compound 291] | 
 | 62.5 (≈ 168 µM) | C#CCN1CC(COS(=O)(=O)c2ccc(Cl)c3nonc23)OC1=O (stereo not drawn) [Compound 235] | 
 | 256 (≈ 542 µM) | CCOC(=O)CC(C)(C)C(=O)CN1C[C@H](COS(=O)(=O)c2ccc([N+](=O)[O-])cc2)OC1=O [Compound 921] | 
 | 250 (≈ 603 µM) | CC(C)(C)C(=O)CCN1C[C@@H](COS(=O)(=O)c2ccc([N+](=O)[O-])cc2)OC1=O [Compound 272] | 
 | 256 (≈ 626 µM) | COC(=O)CN1C[C@@H](COS(=O)(=O)c2ccc(Cl)c([N+](=O)[O-])c2)OC1=O [Compound 1058] | 
 | 16 (≈ 44.7 µM) | CC(=O)CN1C[C@@H](COS(=O)(=O)c2ccc([N+](=O)[O-])cc2)OC1=O [Compound 1063] | 
 | 31.3 (≈ 88.3 µM) | CC#CCN1CC(COS(=O)(=O)c2ccc([N+](=O)[O-])cc2)OC1=O (stereo not drawn) [Compound 110] | 
125 (≈ 308 µM) | 250 (≈ 616 µM) | COC(=O)CN1C[C@@H](COS(=O)(=O)c2ccc(Cl)c3nonc23)OC1=O [Compound 674] | 
 | 256 (≈ 657 µM) | CC(=O)CN1C[C@@H](COS(=O)(=O)c2ccc(Cl)c3nonc23)OC1=O [Compound 1066] | 
128 (≈ 328 µM) | 64 (≈ 164 µM) | CCCCN1CC(COS(=O)(=O)c2ccc(Cl)c3nonc23)OC1=O (stereo not drawn) [Compound 1141] | 
 | 31.3 (≈ 92 µM) | C#CCN1CC(COS(=O)(=O)c2ccc([N+](=O)[O-])cc2)OC1=O (stereo not drawn) [Compound 236] | 
 | 250 (≈ 601 µM) | O=C(CN1C[C@@H](COS(=O)(=O)c2ccc(Cl)c3nonc23)OC1=O)C1CC1 [Compound 260] | 
 | 256 (≈ 652 µM) | CC(=O)CN1C[C@@H](COS(=O)(=O)c2ccc(Cl)c([N+](=O)[O-])c2)OC1=O [Compound 1081] | 
250 (≈ 669 µM) | 62.5 (≈ 167 µM) | C=CCN1CC(COS(=O)(=O)c2ccc(Cl)c3nonc23)OC1=O (stereo not drawn) [Compound 255] | 
250 (≈ 679 µM) | 31.3 (≈ 85 µM) | CCC#CCN1CC(COS(=O)(=O)c2ccc([N+](=O)[O-])cc2)OC1=O (stereo not drawn) [Compound 294] | 
 | 256 (≈ 611 µM) | CN(C)C(=O)CN1C[C@@H](COS(=O)(=O)c2ccc(Cl)c3nonc23)OC1=O [Compound 1026] | 
31.3 (≈ 66.6 µM) | 250 (≈ 532 µM) | O=C(CN1CC(COS(=O)(=O)c2ccc(Cl)c3nonc23)OC1=O)c1ccc(F)cc1 (stereo not drawn) [Compound 369] | 
 | 62.5 (≈ 144 µM) | CCOC(=O)/C=C/N1CC(COS(=O)(=O)c2ccc(Cl)c([N+](=O)[O-])c2)OC1=O (stereo not drawn) [Compound 695] | 
 | 125 (≈ 259 µM) | COc1ccc(C(=O)CN2CC(COS(=O)(=O)c3ccc(Cl)c4nonc34)OC2=O)cc1 (stereo not drawn) [Compound 254] | 
 | 250 (≈ 579 µM) | CC(C)(C)C(=O)CN1C[C@@H](COS(=O)(=O)c2ccc(Cl)c3nonc23)OC1=O [Compound 34, (S)-3-(3,3-dimethyl-2-butone)-5-(7-chloro-2,1,3-benzoxadiazole-4-sulfonyloxymethyl)-2-oxazolidinone] | 
 | 256 (≈ 702 µM) | CCN1C[C@@H](COS(=O)(=O)c2ccc(Cl)c([N+](=O)[O-])c2)OC1=O [Compound 1210] | 

The next lines start with the compound.

Compound | MIC [1] [µg/mL] | MIC [2] [µg/mL] | other results
CN1CC(COS(=O)(=O)c2ccc([N+](=O)[O-])cc2)OC1=O (stereo not drawn) [Compound 266] |  | 15.6 (≈ 49.3 µM) | 
O=C1OC(COSc2ccc([N+](=O)[O-])cc2)CN1Cc1ccc([N+](=O)[O-])cc1 (stereo not drawn) [Compound 2017] | 8 (≈ 19.7 µM) | 16 (≈ 39.5 µM) | 
COC(=O)CN1C[C@@H](COS(=O)(=O)c2ccc([N+](=O)[O-])cc2)OC1=O [Compound 669] |  | 62.5 (≈ 167 µM) | 
O=C1O[C@@H](COS(=O)(=O)c2ccc([N+](=O)[O-])cc2)CN1C(=O)c1ccco1 [Compound 942] |  | 32 (≈ 80.7 µM) | 
CN(C)C(=O)/C=C/N1C[C@@H](COS(=O)(=O)c2ccc([N+](=O)[O-])cc2)OC1=O [Compound 1632] | 64 (≈ 160 µM) | 16 (≈ 40.1 µM) | 
O=C1O[C@@H](COS(=O)(=O)c2ccc([N+](=O)[O-])cc2)CN1C(=O)C1CC1 [Compound 929] |  | 64 (≈ 173 µM) | 
CC(C)(C)OC(=O)/C=C/N1C[C@@H](COS(=O)(=O)c2ccc([N+](=O)[O-])cc2)OC1=O [Compound 1001] | 125 (≈ 292 µM) | 64 (≈ 149 µM) | 
CC(C)N1C[C@H](COS(=O)(=O)c2ccc([N+](=O)[O-])cc2)OC1=O [Compound 952] |  | 32 (≈ 92.9 µM) | 
O=C1O[C@@H](COc2cccc3c(O)cccc23)CN1c1ccc([N+](=O)[O-])cc1 [Compound 1960] | 8 (≈ 21 µM) | 32 (≈ 84.1 µM) | 
O=C(CN1C[C@@H](COS(=O)(=O)c2ccc([N+](=O)[O-])cc2)OC1=O)N1CCOCC1 [Compound 589] |  | 125 (≈ 291 µM) | 
CC(C)N1C[C@@H](CNS(=O)(=O)c2ccc([N+](=O)[O-])cc2[N+](=O)[O-])OC1=O [Compound 870] |  | 16 (≈ 41.2 µM) | 
O=C(CN1CC(COS(=O)(=O)c2ccc(Cl)c3nonc23)OC1=O)c1ccc(F)cc1 (stereo not drawn) [Compound 401] |  |  | MIC(90-100) EF-ATCC 29212 [1]: 62.5 µg/mL (≈ 133 µM); MIC(90-100) SA-ATCC 29213 [2]: 250 µg/mL (≈ 532 µM)
O=C1NCC(COS(=O)(=O)c2ccc(Cl)cc2[N+](=O)[O-])O1 (stereo not drawn) [Compound 1998] | 64 (≈ 190 µM) | 16 (≈ 47.5 µM) | 
CCOC(=O)/C=C/N1C[C@@H](COS(=O)(=O)c2ccc([N+](=O)[O-])cc2)OC1=O [Compound 1160] |  | 128 (≈ 320 µM) | 
O=C(OCC1CN(Cc2ccc(Br)cc2)C(=O)O1)Oc1ccc([N+](=O)[O-])cc1 (stereo not drawn) [Compound 2020] | 124 (≈ 275 µM) | 64 (≈ 142 µM) | 
CN(C)C(=O)/C=C/N1C[C@@H](COC(=O)c2cc(Cl)sc2Cl)OC1=O [Compound 1629] | 64 (≈ 163 µM) | 256 (≈ 651 µM) | 
CCCCN1CC(COS(=O)(=O)c2ccc(Cl)c3nonc23)OC1=O (stereo not drawn) [Compound 285] |  |  | MIC(90-100) EF-ATCC 29212 [1]: 250 µg/mL (≈ 641 µM); MIC(90-100) SA-ATCC 29213 [2]: 62.5 µg/mL (≈ 160 µM)
O=C1O[C@H](COS(=O)(=O)c2ccc([N+](=O)[O-])cc2)CN1C(=O)C1CC1 [Compound 250] |  | 250 (≈ 675 µM) | 
O=C1O[C@H](COS(=O)(=O)c2ccc([N+](=O)[O-])cc2)CN1C(=O)c1ccco1 [Compound 334] |  | 62.5 (≈ 158 µM) | 
CCOC(=O)/C=C/N1CC(COSc2ccc([N+](=O)[O-])cc2)OC1=O (stereo not drawn) [Compound 2025] | 32 (≈ 86.9 µM) | 64 (≈ 174 µM) | 
COc1ccc(C(=O)CN2CC(COS(=O)(=O)c3sc(NC(C)=O)nc3C)OC2=O)c(OC)c1 (stereo not drawn) [Compound 324] | 250 (≈ 487 µM) | 62.5 (≈ 122 µM) | 
CCOC(=O)/C=C/N1CC(COS(=O)(=O)C2=CC=C([N+](=O)[O-])CC2)OC1=O (stereo not drawn) [Compound 388] |  | 125 (≈ 311 µM) | 
O=C1NCC(COS(=O)(=O)c2ccc([N+](=O)[O-])cc2)O1 (stereo not drawn) [Compound 1985] | 124 (≈ 410 µM) | 8 (≈ 26.5 µM) | 
CC(C)N1C[C@@H](CNS(=O)(=O)c2ccc([N+](=O)[O-])cc2)OC1=O [Compound 860] |  | 64 (≈ 186 µM) | 
CC(C)(C)CC(=O)CN1C[C@@H](COS(=O)(=O)c2ccc([N+](=O)[O-])cc2)OC1=O [Compound 533] |  | 125 (≈ 302 µM) | 
CC(=O)OC(C(=O)OC[C@@H]1CN(C)C(=O)O1)c1ccccc1 (stereo partly drawn) [Compound 1097] |  | 32 (≈ 104 µM) | 

— US20070265451A1, “Process for the preparation of oxazolidinones and method of use thereof” (Board of Trustees of Michigan State University, priority 2001, published 2007)
